Data taken from US20230087994A1, “TARGETED BIFUNCTIONAL DEGRADERS” (YALE UNIVERSITY, priority 2019, published 2023).

Assays:
[1] = tested on: HepG2 cells; test: DNP-AF3-mediated endocytosis of fluorescently labeled α-DNP antibody by HepG2 cells (flow cytometry); assay type: cell-based, human; conditions: 40 nM DNP-AF3, 100 nM antibody; FIG. 106
Procedure: The intracellular fluorescence of cells that were incubated at 37° C. with both fluorescently labeled α-DNP antibody and DNP-AF3 for a given amount of time was examined. Cells were then washed, removed from the plate with trypsin, and subjected to flow cytometry. Trypsin treatment is expected to cleave ASGPR and surface-bound α-DNP antibody from cells, and therefore the cellular fluorescence observed in these assays is expected to arise only from internalized antibodies.
It was then determined if reagents which inhibit ternary complex formation inhibit endocytosis mediated by DNP-AF3. In order to account for non-specific antibody association with cells, the mean fluorescence intensity of an aliquot of cells which had been treated with α-DNP antibody but not DNP-AF3 was subtracted from each reading. […] In the presence of 2.38 μM (0.1 mg/mL) ASOR, the cell population fluorescence was decreased to 4.66e5 (FIG. 105); at this ASOR concentration, ternary complex formation is decreased by approximately 70%. Because ternary complex is not inhibited completely at this concentration of ASOR, it is expected that productive endocytic events are still taking place.

[2] = biological target: human IgG (fluorescently labeled) (human); test: cell-based or functional assay
[3] = tested on: HepG2 cells; test: DNP-GN3-mediated endocytosis of fluorescently labeled α-DNP antibody by adherent HepG2 cells; assay type: cell-based, human; conditions: DNP-GN3-mediated uptake; FIG. 89
Procedure: It was next explored whether DNP-GN3 mediates the endocytosis of fluorescently labeled α-DNP antibody.
To explore the cellular mechanism of antibody uptake, cells were treated with chemical inhibitors of several endocytic pathways (FIG. 89).

[4] = tested on: HepG2 cells; test: MIF-GN3-mediated endocytosis of fluorescently labeled human MIF by HepG2 cells
Procedure: Human MIF protein was fluorescently labeled with Alexa 488 NHS ester, then incubated with HepG2 cells in the presence of varying levels of MIF-GN3.
Next, inhibitors of various endocytic pathways were utilized to determine if MIF-GN3 mediates MIF endocytosis in a manner consistent with ASGPR (FIG. 132).

[5] = biological target: T1, asialoglycoprotein receptor (ASGPR) on the surface of immortalized human hepatocyte HepG2 cells (human) (UniProt P07306); test: cell-based or functional assay
T1 sequence (looked up) 1: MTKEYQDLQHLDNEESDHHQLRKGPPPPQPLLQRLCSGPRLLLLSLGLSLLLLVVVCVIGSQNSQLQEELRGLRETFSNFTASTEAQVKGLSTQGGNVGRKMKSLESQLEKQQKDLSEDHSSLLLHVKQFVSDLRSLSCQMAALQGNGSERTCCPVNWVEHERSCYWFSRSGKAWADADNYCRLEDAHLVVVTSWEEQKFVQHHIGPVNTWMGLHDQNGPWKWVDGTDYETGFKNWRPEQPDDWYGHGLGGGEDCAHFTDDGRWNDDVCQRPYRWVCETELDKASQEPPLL
T1 sequence (looked up) 2: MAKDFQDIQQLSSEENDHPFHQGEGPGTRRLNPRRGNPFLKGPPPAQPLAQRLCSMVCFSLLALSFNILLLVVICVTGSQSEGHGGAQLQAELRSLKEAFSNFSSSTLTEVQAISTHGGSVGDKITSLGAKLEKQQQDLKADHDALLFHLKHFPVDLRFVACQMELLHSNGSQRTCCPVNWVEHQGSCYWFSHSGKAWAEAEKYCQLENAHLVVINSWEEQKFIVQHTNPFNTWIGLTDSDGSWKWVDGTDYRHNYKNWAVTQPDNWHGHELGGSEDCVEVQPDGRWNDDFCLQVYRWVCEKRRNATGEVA

[6] = biological target: T1, asialoglycoprotein receptor (ASGPR) on the surface of immortalized human hepatocyte HepG2 cells (human); test: competition, flow cytometry on HepG2 cells against 40 nM DNP-AF3 and 100 nM α-DNP antibody
[7] = biological target: T1, asialoglycoprotein receptor (ASGPR) on the surface of immortalized human hepatocyte HepG2 cells (human); test: competition, flow cytometry: inhibition of DNP-GN3-mediated association of fluorescent α-DNP antibody with HepG2 cells in suspension (ASGPR on cells)

Sequence of asialoorosomucoid (ligand) (P02763 19-201): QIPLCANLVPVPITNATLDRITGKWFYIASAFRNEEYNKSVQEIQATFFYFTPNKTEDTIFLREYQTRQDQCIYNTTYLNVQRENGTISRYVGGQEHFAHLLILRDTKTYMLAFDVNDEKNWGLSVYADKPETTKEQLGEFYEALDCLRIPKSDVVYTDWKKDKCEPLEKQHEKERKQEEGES

**Q.** Which “effect of endocytic pathway inhibitors on fluorescence of the cell population” value [1] does the source give for C=C1[C@@H](C)[C@H]2[C@H](Cc3ccccc3)NC(=O)[C@]23[C@H](OC(C)=O)/C=C/[C@@](C)(O)C(=O)[C@@H](C)C/C=C/[C@H]3[C@@H]1O [cytochalisin D (CytD)] here?
**A.** Its value is “non-significant decrease”.

**Q.** For FcIII-BCN-GN3 (peptide), which endocytosis of human IgG by HepG2 cells over time and concentration: most effective FcIII-BCN-GN3 concentration [2] is on record?
**A.** Its endocytosis of human IgG by HepG2 cells over time and concentration: most effective FcIII-BCN-GN3 concentration is 1 µM.

**Q.** Which results are given for C[C@@H]1[C@H](O)[C@@H](C)/C=C/C=C/CC/C=C/C=C/C=C/C=C/C(O[C@H]2O[C@H](C)[C@@H](O)[C@H](N)[C@@H]2O)CC2O[C@](O)(CC(O)C(O)CCC(O)CC(O)CC(O)CC(=O)O[C@H]1C)CC(O)C2C(=O)O (stereo partly shown) [nystatin, Nystatin]?
**A.** effect of endocytic pathway inhibitors on intracellular fluorescence [3]: did not significantly decrease; effect of endocytic pathway inhibitors on fluorescence of the cell population [1]: did not significantly decrease; effect of endocytic pathway inhibitors on MIF-GN3-mediated MIF endocytosis ([4]; 100 nM MIF, 200 nM MIF-GN3, FIG. 132): did not decrease

**Q.** What does the source list for O=c1c(-c2ccc(O)cc2)coc2cc(O)cc(O)c12 [genistein, Genistein]?
**A.** effect of endocytic pathway inhibitors on fluorescence of the cell population [1]: did not significantly decrease; toxicity to cells ([4]; HepG2 cells with MIF and MIF-GN3): toxic to cells

**Q.** Which mean fluorescence of the HepG2 cell population (DNP-AF3-mediated α-DNP antibody endocytosis) in the presence of 2.38 µM (0.1 mg/mL) ASOR; approximately 1.31e6 without inhibitor (mean fluorescence) [5] does the source give for asialoorosomucoid (ligand) here?
**A.** Its mean fluorescence of the HepG2 cell population (DNP-AF3-mediated α-DNP antibody endocytosis) in the presence of 2.38 µM (0.1 mg/mL) ASOR; approximately 1.31e6 without inhibitor (mean fluorescence) is 466000.

**Q.** And the percent decrease of ternary complex formation at 2.38 µM (0.1 mg/mL) ASOR [6]?
**A.** Its percent decrease of ternary complex formation at 2.38 µM (0.1 mg/mL) ASOR is 70%.

**Q.** And the IC50 [7]?
**A.** Its IC50 is 17 nM.
